pEC50: −log10 of the molar value.
How the values were obtained:
[1] = target: purified human α1β3γ2 GABAA receptor (Homo sapiens, UniProt P14867+P28472); type: binding
[2] = target: human α1β3γ2 GABAA receptors (Homo sapiens, UniProt P14867+P28472); assay: Modulation of [3H]muscimol binding to GABAA receptor membranes from HEK293 cells; conditions: 2 nM [3H]muscimol
Partition coefficient = type: physicochemical; conditions: difference to alphaxalone
purified α1β3γ2 GABAARs = purified α1β3γ2 GABAARs (Homo sapiens, UniProt P14867+P28472); type: binding; conditions: 3.5 μM [3H]azietomidate
GABAAR = conditions: read-out: Potentiation EC50; bulk phase concentration; cited from earlier work

Chain of human α1β3γ2 GABAA receptors (P14867 28-456): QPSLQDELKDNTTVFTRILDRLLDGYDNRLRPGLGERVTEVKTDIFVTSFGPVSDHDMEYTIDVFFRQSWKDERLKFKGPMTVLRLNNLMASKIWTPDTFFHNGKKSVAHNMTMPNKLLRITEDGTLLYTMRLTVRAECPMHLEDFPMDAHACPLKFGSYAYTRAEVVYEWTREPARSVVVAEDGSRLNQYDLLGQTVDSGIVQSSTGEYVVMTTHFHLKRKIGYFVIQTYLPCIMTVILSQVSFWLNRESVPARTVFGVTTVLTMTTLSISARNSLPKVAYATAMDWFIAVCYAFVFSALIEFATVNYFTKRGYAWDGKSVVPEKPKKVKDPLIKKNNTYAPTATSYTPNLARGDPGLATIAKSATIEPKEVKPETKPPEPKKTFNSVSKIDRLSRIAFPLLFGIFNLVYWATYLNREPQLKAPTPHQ
Chain of human α1β3γ2 GABAA receptors (P28472 26-473): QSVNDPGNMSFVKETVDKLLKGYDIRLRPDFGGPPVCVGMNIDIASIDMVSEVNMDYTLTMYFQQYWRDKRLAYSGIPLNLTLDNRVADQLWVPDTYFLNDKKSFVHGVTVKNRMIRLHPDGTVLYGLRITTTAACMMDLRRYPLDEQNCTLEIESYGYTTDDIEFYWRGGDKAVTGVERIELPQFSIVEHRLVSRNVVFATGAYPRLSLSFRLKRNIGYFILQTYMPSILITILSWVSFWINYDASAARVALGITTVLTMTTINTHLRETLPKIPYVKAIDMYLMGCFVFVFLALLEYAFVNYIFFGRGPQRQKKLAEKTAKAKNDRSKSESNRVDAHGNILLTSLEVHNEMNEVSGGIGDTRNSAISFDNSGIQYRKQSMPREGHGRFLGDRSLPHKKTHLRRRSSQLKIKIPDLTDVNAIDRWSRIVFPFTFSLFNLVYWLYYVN
Chain of human α1β3γ2 GABAA receptors (P18507 40-475 partner): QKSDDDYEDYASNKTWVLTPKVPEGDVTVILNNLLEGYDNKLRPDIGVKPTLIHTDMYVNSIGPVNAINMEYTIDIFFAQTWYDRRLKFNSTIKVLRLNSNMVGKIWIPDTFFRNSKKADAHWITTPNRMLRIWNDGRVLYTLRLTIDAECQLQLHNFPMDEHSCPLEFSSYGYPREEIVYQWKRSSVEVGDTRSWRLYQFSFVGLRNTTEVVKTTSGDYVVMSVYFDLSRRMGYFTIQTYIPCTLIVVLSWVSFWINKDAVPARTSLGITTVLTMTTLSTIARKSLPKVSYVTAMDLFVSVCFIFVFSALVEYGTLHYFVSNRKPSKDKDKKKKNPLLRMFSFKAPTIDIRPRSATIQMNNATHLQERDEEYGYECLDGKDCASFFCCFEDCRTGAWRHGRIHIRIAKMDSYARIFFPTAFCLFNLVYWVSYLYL
Chain of purified human α1β3γ2 GABAA receptor (P14867 28-456): as the sequence (P14867 28-456) above
Chain of purified human α1β3γ2 GABAA receptor (P28472 26-473): as the sequence (P28472 26-473) above
Chain of purified human α1β3γ2 GABAA receptor (P18507 40-475 partner): as the sequence (P18507 40-475 partner) above
Chain of purified α1β3γ2 GABAARs (P14867 28-456): as the sequence (P14867 28-456) above
Chain of purified α1β3γ2 GABAARs (P28472 26-473): as the sequence (P28472 26-473) above
Chain of purified α1β3γ2 GABAARs (P18507 40-475 partner): as the sequence (P18507 40-475 partner) above

For `CC(=O)[C@H]1CC[C@H]2[C@@H]3CC[C@H]4C[C@H](O)CC[C@]4(C)[C@H]3C3(C[C@]12C)N=N3` [11-aziAP, 11-Aziallopregnanolone], the “Enhancement of photolabeling by both probes ([3H]azietomidate, [3H]R-mTFD-MPAB)” value ([1]; 0.3 and 1 μM) was “to the same extent as GABA or alphaxalone”, the “Efficacy of modulation of [3H]muscimol binding” value [2] was 227 ± 2% and the “Hill coefficient of enhancement of [3H]muscimol binding” value [2] was 1.1 ± 0.2.
In the case of `CC(=O)[C@H]1CC[C@H]2[C@@H]3CC[C@H]4C[C@H](O)CC[C@]4(C)[C@H]3[C@@H](OC(=O)c3c(F)c(F)c(N=[N+]=[N-])c(F)c3F)C[C@]12C` [F4N3Bzox-AP, 11β-(4-Azido-2,3,5,6-tetrafluorobenzoyloxy)-3α-hydroxy-5α-pregnane-20-one], the “Higher lipophilicity as compared to alphaxalone” value (Partition coefficient) was “ca. 1.5 log P units”, the “Efficacy of modulation of [3H]muscimol binding” value [2] was 228 ± 4% and the “Hill coefficient of enhancement of [3H]muscimol binding” value [2] was 1.9 ± 0.1.
With `CC(c1ccccc1)n1cncc1C(=O)OCCC1(C)N=N1` (stereo not drawn) [[^3H]azietomidate, reference compound] the “Pharmacologically specific subunit photolabeling (inhibitable by etomidate)” value ([1]; [3H]azietomidate subunit photolabeling) was 80% and the α-subunits photolabeled (purified α1β3γ2 GABAARs) was 10%.
In the case of `CC(=O)[C@H]1CC[C@H]2[C@@H]3CC[C@H]4C[C@H](O)CC[C@]4(C)[C@H]3C(=O)C[C@]12C` [alphaxalone, Alphaxalone], the pEC50 (GABAAR) is given as 6.22.
